Measured values as given in BindingDB's records for doi:10.1021/jm00070a001 (Warner-Lambert, 1993).
Where a SMILES comes first, the peptide text is derived from it. [ ]: non-standard residue; d: D form.

Each molecule was assayed against Endothelin-1 receptor (Oryctolagus cuniculus) (assay: Effective concentration against ET A receptor from rabbit renal artery vascular smooth muscle cells).

For `CC[C@H](C)[C@H](NC(=O)[C@@H](NC(=O)[C@@H](Cc1ccccc1)NC(C)=O)[C@@H](C)CC)C(=O)N[C@@H](Cc1c[nH]c2ccccc12)C(=O)O` [Ac-D-Phe-Ile-Ile-Trp] (Ac-[dF]IIW-OH), which IC50 is on record?
The IC50 was over 10 µM.

How did the IC50 turn out when `CC[C@H](C)[C@H](NC(=O)[C@H](CC(=O)O)NC(=O)[C@H](CC(C)C)NC(=O)[C@@H](Cc1ccccc1)NC(C)=O)C(=O)N[C@@H](C)C(=O)N[C@@H](Cc1c[nH]c2ccccc12)C(=O)O` [Ac-D-Phe-Leu-Asp-Ile-Ala-Trp] (Ac-[dF]LDIAW-OH) was run?
Its IC50 is 8 µM.

`CC[C@H](C)[C@H](NC(=O)[C@H](CC(=O)O)NC(=O)[C@H](CC(C)C)NC(=O)[C@@H](Cc1ccccc1)NC(C)=O)C(=O)N[C@H](C(=O)NC(Cc1cnc[nH]1)C(=O)O)[C@@H](C)CC` (mixture of isomers) [Ac-D-Phe-Leu-Asp-Ile-Ile-DL-His] was tested. Which IC50 did it give?
Its IC50 is over 10 µM.

Which IC50 does the source give for `CC[C@H](C)[C@H](NC(=O)[C@H](CC(=O)O)NC(=O)[C@H](CC(C)C)NC(=O)[C@@H](Cc1ccccc1)NC(C)=O)C(=O)N[C@H](C(=O)N[C@@H](Cc1csc2ccccc12)C(=O)O)[C@@H](C)CC` [Ac-D-Phe-Leu-Asp-Ile-Ile-Bta] here?
The IC50 was 14 µM.

For `CC[C@H](C)[C@H](NC(=O)[C@H](CC(=O)O)NC(=O)[C@H](CC(C)C)NC(=O)[C@H](N)Cc1ccccc1)C(=O)N[C@H](C(=O)N[C@@H](Cc1c[nH]c2ccccc12)C(=O)O)[C@@H](C)CC` [D-Phe-Leu-Asp-Ile-Ile-Trp], which IC50 is on record?
Its IC50 is over 10 µM.

With `CC[C@H](C)[C@H](NC(=O)[C@H](CC(=O)O)NC(=O)[C@H](CC(C)C)NC(=O)[C@@H](Cc1ccccc1)NC(C)=O)C(=O)N[C@@H](Cc1c[nH]c2ccccc12)C(=O)O` [(S)-3-[(R)-2-((1S,5S)-2-Acetylamino-3-phenyl-propionylamino)-4-methyl-pentanoylamino]-N-{(S)-1-[(S)-1-carboxy-2-(1H-indol-3-yl)-ethylcarbamoyl]-2-methyl-butyl}-succinamic acid] (Ac-[dF]LDIW-OH) as the molecule, how does the IC50 read?
The IC50 was over 10 µM.

For `CC[C@H](C)[C@H](NC(=O)[C@H](C)NC(=O)[C@H](CC(=O)O)NC(=O)[C@H](CC(C)C)NC(=O)[C@@H](Cc1ccccc1)NC(C)=O)C(=O)N[C@@H](Cc1c[nH]c2ccccc12)C(=O)O` [Ac-D-Phe-Leu-Asp-Ala-Ile-Trp] (Ac-[dF]LDAIW-OH), which IC50 is on record?
The IC50 was 3.6 µM.

With `CC[C@H](C)[C@H](NC(=O)[C@H](CC(=O)O)NC(=O)[C@H](CC(C)C)NC(=O)[C@@H](Cc1ccc(O)cc1)NC(C)=O)C(=O)N[C@H](C(=O)N[C@@H](Cc1c[nH]c2ccccc12)C(=O)O)[C@@H](C)CC` (Ac-[dY]LDIIW-OH) as the molecule, how does the IC50 read?
Its IC50 is 0.4 µM.

`CC[C@H](C)[C@H](NC(=O)[C@H](CC(=O)O)NC(=O)[C@H](CC(C)C)NC(=O)[C@@H](Cc1ccccc1)NC(C)=O)C(=O)N[C@H](C(=O)N[C@@H](Cc1ccc(O)cc1)C(=O)O)[C@@H](C)CC` [Ac-D-Phe-Leu-Asp-Ile-Ile-Tyr] (Ac-[dF]LDIIY-OH) was tested. Which IC50 did it give?
The IC50 was over 10 µM.
